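Step 1: Grow cells in 96-well plates. Step 2: Expose to compound for 48 hours at 5 concentrations. Step 3: Interpolate endpoints linearly; if unreached, use highest concentration. GI50 = concentration required for 50% inhibition of growth.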 The source made the active and inactive calls. No stated cut-off is given here; in the data, active = GI50 up to about 1.1 µM and inactive = higher.
Key:
Test in all cases: growth of human tumour cells (NCI), 48 h
[1] = test system: 786-0
[2] = test system: A498
[3] = test system: A549
[4] = test system: ACHN
[5] = test system: BT-549
[6] = test system: CAKI-1
[7] = test system: CCRF-CEM
[8] = test system: COLO 205
[9] = test system: DU-145
[10] = test system: EKVX
[11] = test system: HCC 2998
[12] = test system: HCT-116
[13] = test system: HCT-15
[14] = test system: HL-60
[15] = test system: HOP-62
[16] = test system: HOP-92
[17] = test system: HT-29
[18] = test system: Hs-578T
[19] = test system: IGROV-1
[20] = test system: K562
[21] = test system: KM12
[22] = test system: M14
[23] = test system: MCF7
[24] = test system: MDA-MB-231
[25] = test system: MDA-MB-435
[26] = test system: MDA-N
[27] = test system: MOLT-4
[28] = test system: Malme-3M
[29] = test system: NCI-H226
[30] = test system: NCI-H23
[31] = test system: NCI-H460
[32] = test system: NCI-H522
[33] = test system: NCI/ADR-RES
[34] = test system: OVCAR-3
[35] = test system: OVCAR-4
[36] = test system: OVCAR-5
[37] = test system: OVCAR-8
[38] = test system: PC-3
[39] = test system: RPMI-8226
[40] = test system: RXF 393
[41] = test system: SF-268
[42] = test system: SF-295
[43] = test system: SF-539
[44] = test system: SK-MEL-28
[45] = test system: SK-MEL-2
[46] = test system: SK-MEL-5
[47] = test system: SK-OV-3
[48] = test system: SN12C
[49] = test system: SNB-19
[50] = test system: SNB-75
[51] = test system: SR
[52] = test system: SW-620
[53] = test system: T47D
[54] = test system: TK-10
[55] = test system: U-251
[56] = test system: UACC-257
[57] = test system: UACC-62
[58] = test system: LOX IMVI
[59] = test system: UO-31

Measured: GI50

O=c1c2cc(Cl)ccc2[nH]c2cc(O)cc(O)c12
inactive: [1] > 10 µM | [2] > 10 µM | [3] > 10 µM | [4] > 10 µM | [5] > 10 µM | [6] > 10 µM | [7] > 10 µM | [8] > 10 µM | [9] > 10 µM | [10] 4.12 µM | [11] > 10 µM | [12] > 10 µM | [14] > 10 µM | [15] > 10 µM | [16] > 10 µM | [17] > 10 µM | [18] > 10 µM | [19] > 10 µM | [20] > 10 µM | [21] > 10 µM | [22] > 10 µM | [23] > 10 µM | [24] > 10 µM | [25] > 10 µM | [26] > 10 µM | [27] > 10 µM | [28] > 10 µM | [29] 1.61 µM | [30] 9.02 µM | [31] > 10 µM | [32] > 10 µM | [33] > 10 µM | [34] 8.55 µM | [35] > 10 µM | [36] > 10 µM | [37] > 10 µM | [38] > 10 µM | [39] > 10 µM | [40] > 10 µM | [41] > 10 µM | [42] > 10 µM | [43] > 10 µM | [44] > 10 µM | [45] > 10 µM | [46] > 10 µM | [47] > 10 µM | [48] > 10 µM | [49] > 10 µM | [50] 2.95 µM | [51] > 10 µM | [52] > 10 µM | [53] > 10 µM | [54] > 10 µM | [55] > 10 µM | [56] 5.41 µM | [57] > 10 µM
> 10 µM: [13]

O=C1C(=C(C(=O)c2ccccc2)C(=O)c2ccccc2)OC(c2ccccc2)=C1C(=O)c1ccccc1
active: [6] 0.597 µM | [19] 0.164 µM | [40] 0.122 µM
inactive: [1] 3.51 µM | [2] 15.6 µM | [3] 9.04 µM | [4] 4.88 µM | [5] 3.01 µM | [7] 1.78 µM | [8] 12.8 µM | [9] 9.06 µM | [10] 8.28 µM | [11] 9.77 µM | [12] 4.44 µM | [14] 6.84 µM | [15] 3.03 µM | [16] 7.19 µM | [17] 11.7 µM | [18] 11.5 µM | [20] 6.03 µM | [21] 5.5 µM | [58] 1.77 µM | [22] 7.41 µM | [23] 1.85 µM | [24] 6.61 µM | [25] 8.2 µM | [26] 6.47 µM | [27] 1.98 µM | [28] 12.6 µM | [29] 3.74 µM | [30] 6.1 µM | [31] 3.02 µM | [32] 1.22 µM | [33] 5.2 µM | [34] 5.86 µM | [35] 2.79 µM | [36] 16.9 µM | [37] 4.15 µM | [38] 13.2 µM | [39] 5.56 µM | [41] 3.8 µM | [42] 4.79 µM | [43] 5.78 µM | [44] 13.9 µM | [45] 10.8 µM | [46] 7.14 µM | [47] 6.93 µM | [48] 3.29 µM | [49] 10.2 µM | [51] 2.28 µM | [53] 12 µM | [54] 9.35 µM | [55] 4.46 µM | [56] 17.1 µM | [57] 4.33 µM | [59] 6.79 µM
3.36 µM: [13]

CCN1CCC(CNC(=O)c2ccc(N)cc2)N1CC (stereo not given)
inactive: [1] > 100 µM | [2] > 100 µM | [3] > 100 µM | [4] > 100 µM | [5] > 100 µM | [6] > 100 µM | [7] > 100 µM | [8] > 100 µM | [9] > 100 µM | [10] > 100 µM | [11] > 100 µM | [12] > 100 µM | [14] > 100 µM | [15] > 100 µM | [16] > 100 µM | [17] > 100 µM | [18] > 100 µM | [19] > 100 µM | [20] > 100 µM | [21] > 100 µM | [22] > 100 µM | [23] > 100 µM | [24] > 100 µM | [25] > 100 µM | [26] > 100 µM | [27] > 100 µM | [28] > 100 µM | [29] > 100 µM | [30] > 100 µM | [31] > 100 µM | [32] > 100 µM | [33] > 100 µM | [34] > 100 µM | [35] > 100 µM | [36] > 100 µM | [37] > 100 µM | [38] > 100 µM | [39] > 100 µM | [40] > 100 µM | [41] > 100 µM | [42] > 100 µM | [43] > 100 µM | [44] > 100 µM | [45] > 100 µM | [46] > 100 µM | [47] > 100 µM | [48] > 100 µM | [49] > 100 µM | [50] > 100 µM | [51] > 100 µM | [52] > 100 µM | [53] > 100 µM | [54] > 100 µM | [55] > 100 µM | [56] > 100 µM | [57] > 100 µM | [59] > 100 µM
> 100 µM: [13]

CCOC(=O)c1c(Sc2ccc([N+](=O)[O-])cc2[N+](=O)[O-])nc2c3ccccc3ccn12
inactive: [1] 5.6 µM | [2] 62.8 µM | [3] > 100 µM | [4] 19.3 µM | [5] > 75.2 µM | [6] 15.6 µM | [7] 40.7 µM | [8] > 100 µM | [9] > 100 µM | [10] > 100 µM | [11] > 28.6 µM | [12] > 91 µM | [14] 11.5 µM | [15] 13.1 µM | [16] 13.9 µM | [17] > 100 µM | [18] 13.8 µM | [19] > 31.6 µM | [20] > 100 µM | [21] > 100 µM | [58] > 100 µM | [22] > 100 µM | [23] > 100 µM | [24] 29.1 µM | [25] > 100 µM | [26] > 100 µM | [27] > 100 µM | [29] 83.6 µM | [30] > 91 µM | [31] > 55.7 µM | [32] 41.7 µM | [33] > 71.9 µM | [34] > 92.5 µM | [35] 10.7 µM | [36] > 100 µM | [37] 33.8 µM | [38] > 100 µM | [39] 36.3 µM | [40] 21 µM | [41] 28.6 µM | [42] 28.7 µM | [43] 15 µM | [44] > 100 µM | [45] > 100 µM | [46] 80.2 µM | [47] 15.9 µM | [48] 99.1 µM | [49] > 68.1 µM | [50] 13.3 µM | [51] > 100 µM | [52] > 100 µM | [53] > 100 µM | [54] > 55.7 µM | [55] 31.8 µM | [56] > 100 µM | [57] > 39.8 µM | [59] > 41.9 µM
> 100 µM: [13]

— ChEMBL document CHEMBL1201862, “PubChem BioAssay data set” (2004)
